# Assay results: the supplement of paper PMC10627819
# How the values were obtained:
# B. subtilis 168 = assay: fitness (endpoint OD595 vs no drug) (fraction); higher = more growth
# In short: (§1)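 Background-subtracted growth curves were the basis for fitness, taken as the optical density at entry into stationary phase over the robust mean of no-drug control wells. A cap of 1 was applied. The curves came from OD595 readings every 30 min for 14 h at 37 °C, in 384-well plates seeded at OD595 0.01 with 30 µl, or 55 µl for S. pneumoniae.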
# S. pneumoniae D39V = assay: as above
# In short: as §1
smiles,measurement,setting,value
O=C(O)[C@H]1/C(=C/CO)O[C@@H]2CC(=O)N21 [Clavulanic acid] + C[C@H]1c2cccc(O)c2C(=O)C2=C(O)[C@]3(O)C(=O)C(C(N)=O)=C(O)[C@@H](N(C)C)[C@@H]3[C@@H](O)[C@@H]21 [Doxycycline],fitness,"B. subtilis 168; first compound 1.5 µg/mL, partner 0.02 µg/mL",0.862
same,fitness,"B. subtilis 168; first compound 1.5 µg/mL, partner 0.04 µg/mL",0.762
same,fitness,"B. subtilis 168; first compound 3 µg/mL, partner 0.02 µg/mL",0.852
same,fitness,"B. subtilis 168; first compound 3 µg/mL, partner 0.04 µg/mL",0.721
same,fitness,"B. subtilis 168; first compound 6 µg/mL, partner 0.02 µg/mL",0.728
same,fitness,"B. subtilis 168; first compound 6 µg/mL, partner 0.04 µg/mL",0.628
same,fitness,"B. subtilis 168; first compound 6 µg/mL, partner 0.08 µg/mL",0.375
same,fitness,"S. pneumoniae D39V; first compound 0.5 µg/mL, partner 0.003875 µg/mL, one replicate",≥ 1
same,fitness,"S. pneumoniae D39V; first compound 0.5 µg/mL, partner 0.00775 µg/mL, one replicate",0.998
same,fitness,"S. pneumoniae D39V; first compound 0.5 µg/mL, partner 0.0155 µg/mL",0.929
same,fitness,"S. pneumoniae D39V; first compound 1 µg/mL, partner 0.003875 µg/mL, one replicate",0.985
same,fitness,"S. pneumoniae D39V; first compound 1 µg/mL, partner 0.00775 µg/mL, one replicate",0.964
same,fitness,"S. pneumoniae D39V; first compound 1 µg/mL, partner 0.0155 µg/mL",0.892
same,fitness,"S. pneumoniae D39V; first compound 1 µg/mL, partner 0.031 µg/mL",0.615
same,fitness,"S. pneumoniae D39V; first compound 1 µg/mL, partner 0.062 µg/mL",0.429
same,fitness,"S. pneumoniae D39V; first compound 2 µg/mL, partner 0.003875 µg/mL, one replicate",0.9
same,fitness,"S. pneumoniae D39V; first compound 2 µg/mL, partner 0.00775 µg/mL, one replicate",0.895
same,fitness,"S. pneumoniae D39V; first compound 2 µg/mL, partner 0.0155 µg/mL",0.73
same,fitness,"S. pneumoniae D39V; first compound 2 µg/mL, partner 0.031 µg/mL",0.45
same,fitness,"S. pneumoniae D39V; first compound 2 µg/mL, partner 0.062 µg/mL",0.281
O=C(O)[C@H]1/C(=C/CO)O[C@@H]2CC(=O)N21 [Clavulanic acid] + Clc1ccc(COC(Cn2ccnc2)c2ccc(Cl)cc2Cl)c(Cl)c1 [Miconazole],fitness,"S. pneumoniae D39V; first compound 0.5 µg/mL, partner 1.073 µg/mL",≥ 1
same,fitness,"S. pneumoniae D39V; first compound 0.5 µg/mL, partner 1.25 µg/mL",0.956
same,fitness,"S. pneumoniae D39V; first compound 0.5 µg/mL, partner 2.145 µg/mL",0.973
same,fitness,"S. pneumoniae D39V; first compound 0.5 µg/mL, partner 2.5 µg/mL",0.981
same,fitness,"S. pneumoniae D39V; first compound 0.5 µg/mL, partner 4.29 µg/mL",0.924
same,fitness,"S. pneumoniae D39V; first compound 0.5 µg/mL, partner 5 µg/mL",0.94
same,fitness,"S. pneumoniae D39V; first compound 1 µg/mL, partner 1.073 µg/mL",≥ 1
same,fitness,"S. pneumoniae D39V; first compound 1 µg/mL, partner 1.25 µg/mL",0.876
same,fitness,"S. pneumoniae D39V; first compound 1 µg/mL, partner 2.145 µg/mL",0.923
same,fitness,"S. pneumoniae D39V; first compound 1 µg/mL, partner 2.5 µg/mL",0.873
same,fitness,"S. pneumoniae D39V; first compound 1 µg/mL, partner 4.29 µg/mL",0.883
same,fitness,"S. pneumoniae D39V; first compound 1 µg/mL, partner 5 µg/mL",0.838
same,fitness,"S. pneumoniae D39V; first compound 2 µg/mL, partner 1.073 µg/mL",0.898
same,fitness,"S. pneumoniae D39V; first compound 2 µg/mL, partner 1.25 µg/mL",0.715
same,fitness,"S. pneumoniae D39V; first compound 2 µg/mL, partner 2.145 µg/mL",0.787
same,fitness,"S. pneumoniae D39V; first compound 2 µg/mL, partner 2.5 µg/mL",0.66
same,fitness,"S. pneumoniae D39V; first compound 2 µg/mL, partner 4.29 µg/mL",0.754
same,fitness,"S. pneumoniae D39V; first compound 2 µg/mL, partner 5 µg/mL",0.653
O=C(O)[C@H]1/C(=C/CO)O[C@@H]2CC(=O)N21 [Clavulanic acid] + O=C1CN(/N=C/c2ccc([N+](=O)[O-])o2)C(=O)N1 [Nitrofurantoin],fitness,"S. pneumoniae D39V; first compound 0.5 µg/mL, partner 1.285 µg/mL",0.916
same,fitness,"S. pneumoniae D39V; first compound 0.5 µg/mL, partner 2 µg/mL",0.92
same,fitness,"S. pneumoniae D39V; first compound 0.5 µg/mL, partner 2.57 µg/mL",0.943
same,fitness,"S. pneumoniae D39V; first compound 0.5 µg/mL, partner 4 µg/mL",0.878
same,fitness,"S. pneumoniae D39V; first compound 0.5 µg/mL, partner 5.14 µg/mL, one replicate",0.898
same,fitness,"S. pneumoniae D39V; first compound 0.5 µg/mL, partner 8 µg/mL",0.628
same,fitness,"S. pneumoniae D39V; first compound 1 µg/mL, partner 1.285 µg/mL",0.933
same,fitness,"S. pneumoniae D39V; first compound 1 µg/mL, partner 2 µg/mL",0.887
same,fitness,"S. pneumoniae D39V; first compound 1 µg/mL, partner 2.57 µg/mL",0.94
same,fitness,"S. pneumoniae D39V; first compound 1 µg/mL, partner 4 µg/mL",0.773
same,fitness,"S. pneumoniae D39V; first compound 1 µg/mL, partner 5.14 µg/mL, one replicate",0.852
same,fitness,"S. pneumoniae D39V; first compound 1 µg/mL, partner 8 µg/mL",0.544
same,fitness,"S. pneumoniae D39V; first compound 2 µg/mL, partner 1.285 µg/mL",0.883
same,fitness,"S. pneumoniae D39V; first compound 2 µg/mL, partner 2 µg/mL",0.658
same,fitness,"S. pneumoniae D39V; first compound 2 µg/mL, partner 2.57 µg/mL",0.874
same,fitness,"S. pneumoniae D39V; first compound 2 µg/mL, partner 4 µg/mL",0.59
same,fitness,"S. pneumoniae D39V; first compound 2 µg/mL, partner 5.14 µg/mL, one replicate",0.817
same,fitness,"S. pneumoniae D39V; first compound 2 µg/mL, partner 8 µg/mL",0.358
Clc1ccc(COC(Cn2ccnc2)c2ccc(Cl)cc2Cl)c(Cl)c1 (configuration not stated) [Miconazole] + CO[C@@]12[C@H](COC(N)=O)C3=C(C(=O)C(C)=C(N)C3=O)N1C[C@@H]1N[C@@H]12 [Mitomycin C],fitness,"S. pneumoniae D39V; first compound 1.073 µg/mL, partner 0.002 µg/mL",0.882
same,fitness,"S. pneumoniae D39V; first compound 1.073 µg/mL, partner 0.004 µg/mL",0.854
same,fitness,"S. pneumoniae D39V; first compound 1.073 µg/mL, partner 0.008 µg/mL",0.718
same,fitness,"S. pneumoniae D39V; first compound 1.25 µg/mL, partner 0.001075 µg/mL",0.983
same,fitness,"S. pneumoniae D39V; first compound 1.25 µg/mL, partner 0.00215 µg/mL",0.88
same,fitness,"S. pneumoniae D39V; first compound 1.25 µg/mL, partner 0.0043 µg/mL",0.786
same,fitness,"S. pneumoniae D39V; first compound 2.145 µg/mL, partner 0.002 µg/mL",0.883
same,fitness,"S. pneumoniae D39V; first compound 2.145 µg/mL, partner 0.004 µg/mL",0.826
same,fitness,"S. pneumoniae D39V; first compound 2.145 µg/mL, partner 0.008 µg/mL",0.748
same,fitness,"S. pneumoniae D39V; first compound 2.5 µg/mL, partner 0.001075 µg/mL",0.979
same,fitness,"S. pneumoniae D39V; first compound 2.5 µg/mL, partner 0.00215 µg/mL",0.898
same,fitness,"S. pneumoniae D39V; first compound 2.5 µg/mL, partner 0.0043 µg/mL",0.777
same,fitness,"S. pneumoniae D39V; first compound 4.29 µg/mL, partner 0.002 µg/mL",0.779
same,fitness,"S. pneumoniae D39V; first compound 4.29 µg/mL, partner 0.004 µg/mL",0.742
same,fitness,"S. pneumoniae D39V; first compound 4.29 µg/mL, partner 0.008 µg/mL",0.64
same,fitness,"S. pneumoniae D39V; first compound 5 µg/mL, partner 0.001075 µg/mL",0.95
same,fitness,"S. pneumoniae D39V; first compound 5 µg/mL, partner 0.00215 µg/mL",0.907
same,fitness,"S. pneumoniae D39V; first compound 5 µg/mL, partner 0.0043 µg/mL",0.812
Clc1ccc(COC(Cn2ccnc2)c2ccc(Cl)cc2Cl)c(Cl)c1 (configuration not stated) [Miconazole] + Cc1ncc([N+](=O)[O-])n1CCO [Metronidazole],fitness,"S. pneumoniae D39V; first compound 1.073 µg/mL, partner 1.25 µg/mL",≥ 1
same,fitness,"S. pneumoniae D39V; first compound 1.073 µg/mL, partner 2.5 µg/mL",≥ 1
same,fitness,"S. pneumoniae D39V; first compound 1.073 µg/mL, partner 5 µg/mL",≥ 1
same,fitness,"S. pneumoniae D39V; first compound 1.25 µg/mL, partner 1.073 µg/mL",0.934
same,fitness,"S. pneumoniae D39V; first compound 1.25 µg/mL, partner 2.145 µg/mL",0.932
same,fitness,"S. pneumoniae D39V; first compound 1.25 µg/mL, partner 4.29 µg/mL",0.905
same,fitness,"S. pneumoniae D39V; first compound 2.145 µg/mL, partner 1.25 µg/mL",≥ 1
same,fitness,"S. pneumoniae D39V; first compound 2.145 µg/mL, partner 2.5 µg/mL",≥ 1
same,fitness,"S. pneumoniae D39V; first compound 2.145 µg/mL, partner 5 µg/mL",≥ 1
same,fitness,"S. pneumoniae D39V; first compound 2.5 µg/mL, partner 1.073 µg/mL",0.955
same,fitness,"S. pneumoniae D39V; first compound 2.5 µg/mL, partner 2.145 µg/mL",0.858
same,fitness,"S. pneumoniae D39V; first compound 2.5 µg/mL, partner 4.29 µg/mL",0.884
same,fitness,"S. pneumoniae D39V; first compound 4.29 µg/mL, partner 1.25 µg/mL",0.99
same,fitness,"S. pneumoniae D39V; first compound 4.29 µg/mL, partner 2.5 µg/mL",0.888
same,fitness,"S. pneumoniae D39V; first compound 4.29 µg/mL, partner 5 µg/mL",0.984
same,fitness,"S. pneumoniae D39V; first compound 5 µg/mL, partner 1.073 µg/mL",0.972
same,fitness,"S. pneumoniae D39V; first compound 5 µg/mL, partner 2.145 µg/mL",0.846
same,fitness,"S. pneumoniae D39V; first compound 5 µg/mL, partner 4.29 µg/mL",0.94
